# Read-outs that look alike come from different tables or passages of the source.
# Assays:
# [1] = tested on: Cx3cr1-cre::Panx1^flx/flx mice; test: Naloxone-precipitated morphine withdrawal behaviours in mice; assay type: in vivo, mouse; settings: for morphine withdrawal: morphine-dependent Panx1-expressing mice, 15 minutes prior to naloxone
# Experimental: (§1) Control rats and mice received saline and were challenged with naloxone on day 5. […] Jumping, teeth chattering, wet-dog shakes, headshakes, and grooming behaviors were evaluated at 5-min intervals for a total test period of 30 minutes and a standardized score of 0 to 3 was assigned to each behavior. Allodynia, piloerection, salivation, ejaculation, and tremorsitwitchina were also evaluated, with one point given to the presence of the behavior during each 5-min interval. All signs were counted and compiled to yield a cumulative withdrawal score. Rats and mice were weighed before and after naloxone challenge to calculate weight loss. In all behavioral studies, experimenters were blind to the drug treatments and genetic profile of rats and mice.
# (§2) All control animals received intrathecal saline.
# morphine-dependent rats = test: Naloxone-precipitated morphine withdrawal behaviours in rats; assay type: in vivo, rat; settings: for morphine withdrawal: morphine-dependent rats
# Experimental: as §1, §2
# Both mefloquine and probenecid were reconstituted in β-cyclodextrin (Sigma), and control animals received systemic β-cyclodextrin.
# Panx1 [2] = molecular target: T1, Panx1 (Mus musculus, UniProt Q9JIP4); assay type: cell-based; settings: for ATP release: morphine-treated cultured microglia stimulated with naloxone
# T1 construct: endogenous in cells; host or cells: BV-2 microglia
# Experimental: (§3) BV2 microglia were maintained in DMEM media (Gibco) containing 10% FBS and 1% Pen-Strep at 37° C. with 5% CO2.
# ATP level were detected using bioluminescence by combining samples with recombinant firefly luciferase and its substrate D-luciferin (ATP Determination Kit, Life Technologies). The ATPase inhibitor (ARL67156, 1 μM, Sigma) was added to the ECS or ACSF to decrease breakdown of ATP, and samples were incubated in medium for 30 minutes prior to naloxone stimulation to reduce mechanically-induced ATP release. Samples were stimulated with naloxone (10 μM) for 30 minutes, at which point the supernatant was collected. Samples were read immediately after collection using a FilterMax F5 plate reader at 28° C. For experiments for BV-2 microglial cultures, cells were incubated in ^10panx (10 μM), ^scrpanx (10 μM), probenecid (1 mM), mefloquine (40 μM) or ECS for 10 minutes prior to naloxone stimulation. Final ATP measurement was expressed relative to control samples (saline treated and ECS stimulated) from the same plate. For ATP release in spinal cord slices, tamoxifen or vehicle treated Cx3cr1::Panx1^flx/flx mice were perfused with ice-cold oxygenated sucrose-substituted ACSF, and the spinal cord isolated by hydraulic extrusion. The lumbar segment of the spinal cord was sliced into 300 μm sections, and incubated in oxygenated 37° C. ACSF for 1 hour. Spinal cord slices were then transferred to room temperature oxygenated ACSF and stimulated with naloxone. For quantification, ATP release was normalized to total protein of each sample.
# Panx1 [3] = molecular target: T1, Panx1; assay type: cell-based; settings: for naloxone potentiation of Panx1 activation (YO-PRO-3 dye uptake): morphine-treated BV-2 microglial cultures, 30 minutes post-BzATP; for BzATP-evoked YO-PRO-1 uptake: morphine-treated microglia, BzATP 150 μM, drug 10 μM
# Experimental: as §3
# Following a 5-min baseline recording, cells were stimulated with BzATP (150 μM, Sigma) and dye-uptake was recorded for 30 minutes. Cell viability was assessed immediately after 30 minute recording by application of ionomycin (1 μM, Sigma). YO-PRO-1 dye fluorescent emission (491/509) or YO-PRO-3 dye fluorescent emission (612/631) was detected at 37° C. using a FilterMax F5 plate reader (Molecular Devices). Drugs used include ^10panx, ^scrpanx, and naloxone, all of which were used at 10 μM. Drugs were bath applied in YO-PRO-1 dye and incubated at 37° C. for 10 minutes prior to baseline recording. Fluorescent emission at 30 minutes post BzATP application was calculated as percent change from baseline. Representative images of BV-2 YO-PRO-1 dye uptake were taken at room temperature using an inverted microscope (Nikon Eclipse Ti C1S1 Spectral Confocal) with images take at 5 minute intervals for 30 minutes using EasyRatioPro software (PTI). To assess Panx1 function in Cx3cr1::Panx1^flx/flx adult microglia, neuron-glia mixture culture was isolated from adult mice treated with tamoxifen or vehicle for 5 days, then plated in DMEM containing 10% FBS and 1% Pen-Strep and incubated overnight at 37° C. with 5% CO2. Cells were washed and incubated with DAPI (1:10,000) for 10 minutes, and then incubated in YO-PRO-3 dye. Microglia were identified from mixed adult neuronal-glia culture by endogenous expression of eYFP. Fluorescence of individual eYFP positive microglia was recorded for a 5 minute baseline period and then for 30 minutes post BzATP stimulation (300 μM). Fluorescent emission at 30 minutes was calculated and as percent change from baseline.
# Panx1 [4] = test: Western blot of total Panx1 protein in BV-2 microglial cell line; assay type: cell-based; settings: morphine for 5-days
# Experimental: (§4) Rat spinal cord tissue was rapidly dissected and homogenized in RIPA buffer containing 20 mM TrisHCl (pH 7.5), 150 mM NaCl, and 0.5% Tween-20. Cultured microglia were harvested in 150 μL lysis buffer containing 50 mM TrisHCl, 150 mM NaCl, 10 mM EDTA, 0.1% Triton-X, and 5% Glycerol. Both RIPA and lysis buffers contained protease inhibitors (Sigma) and phosphatase inhibitors (GBiosciences). Total protein was measured using a BioRad RC DC Protein Assay Kit (BioRad) or Pierce BCA Protein Assay Kit (Thermo Scientific). Samples were heated at 95° C. for 5-min in loading buffer (350 mM Tris, 30% glycerol, 1.6% SDS, 1.2% bromophenol blue, 6% β-mercaptoethanol) then electrophoresed on a precast SDS gel (4-12% Tris-HCl, BioRad) and transferred onto a nitrocellulose membrane. […] Membranes were washed and incubated for 2 h at 20-25° C. in fluorophore-conjugated secondary antibodies (anti-rabbit and anti-mouse conjugated IR Dyes 1:5000, Mandel Scientific; or Fluorescent TrueBlot anti-rabbit IgG Dylight 1:1000, Rockland) then quantified by direct detection of secondary antibody fluorescence at 680 and 800 nm (LICOR Odyssey CLx). Band intensity was quantified using Image J, normalized to β-actin and expressed relative to control samples. […]
# Panx1 [5] = test: Western blot of total Panx1 protein in rat primary microglia cultures; assay type: cell-based; settings: morphine for 5-days
# Experimental: as §4
# [6] = tested on: CD11b-positive cells in the lumbar spinal cords; settings: mouse
# Experimental: Mice with microglial specific deletion of Panx1 were generated using a Cre-loxP system. […] Progeny genotype was screened using PCR, and homozygous Panx1^flx/flx and Cx3cr1-cre mice were bred and backcrossed for 8 generations to yield the conditional Cx3cr1::Panx1^flx/flx knock-out mice. To induce Cre recombination, mice were injected intraperitoneally with 1 mg per day tamoxifen (Sigma) for 5 days. Wild-type mice were littermate mice that received vehicle injections (sunflower oil with 10% ethanol) for 5 days, while tamoxifen-related effects were controlled for using Panx1^flx/flx littermate mice that received 5 days of tamoxifen injections.
# T1 sequence (Q9JIP4 whole entry): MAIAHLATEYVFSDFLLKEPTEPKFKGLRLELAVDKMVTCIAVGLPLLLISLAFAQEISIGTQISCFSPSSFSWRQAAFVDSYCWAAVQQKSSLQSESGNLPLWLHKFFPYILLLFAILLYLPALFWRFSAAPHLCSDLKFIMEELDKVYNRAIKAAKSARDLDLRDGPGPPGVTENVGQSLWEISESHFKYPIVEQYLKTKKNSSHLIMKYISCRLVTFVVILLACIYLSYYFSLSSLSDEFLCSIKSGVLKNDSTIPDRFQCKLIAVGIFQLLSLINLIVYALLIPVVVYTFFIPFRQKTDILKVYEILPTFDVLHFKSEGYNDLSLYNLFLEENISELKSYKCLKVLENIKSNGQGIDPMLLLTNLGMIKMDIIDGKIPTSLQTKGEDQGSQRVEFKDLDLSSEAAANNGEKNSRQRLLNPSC
molecule,measurement,setting,value
CCN(CC)c1ncnc2c1ncn2[C@@H]1O[C@H](COP(=O)(O)OP(=O)(O)C(Br)(Br)P(=O)(O)O)[C@@H](O)[C@H]1O [ARL67156],morphine withdrawal,[1]; intrathecal 10 nmoles,exacerbated
Nc1ncnc2c1ncn2[C@@H]1O[C@H](COP(=O)(O)OP(=O)(O)OP(O)(O)=S)[C@@H](O)[C@H]1O [ATPγS],withdrawal behaviors,"[1]; morphine-treated Panx1-deficient mice, intrathecal 100 μM together with naloxone challenge",restored a spectrum of withdrawal behaviors
same,withdrawal behaviors,"[1]; saline-treated Panx1-deficient mice, intrathecal 100 μM",not observed
OC(c1cc(C(F)(F)F)nc2c(C(F)(F)F)cccc12)C1CCCCN1 (stereo not shown) [mefloquine],morphine withdrawal,morphine-dependent rats; systemic 45 mg/kg i.p. 1-hour prior to naloxone challenge,significantly ameliorated
same,ATP release,Panx1 [2]; mefloquine 40 μM,suppressed
same,naloxone potentiation of Panx1 activation (YO-PRO-3 dye uptake),Panx1 [3],blocked
CN1CC[C@]23c4c5ccc(O)c4O[C@H]2[C@@H](O)C=C[C@H]3[C@H]1C5 [morphine],total Panx1 protein levels,Panx1 [4],marked increase
same,total Panx1 protein levels,Panx1 [5],marked increase
C=CCN1CC[C@]23c4c5ccc(O)c4O[C@H]2C(=O)CC[C@@]3(O)[C@H]1C5 [naloxone],ATP in microglial supernatant,"Panx1 [2]; naloxone applied to microglia in culture (10 μM, 30 minutes)",evoked the release of ATP
same,BzATP-evoked YO-PRO-1 uptake,Panx1 [3],further potentiated
CCCN(CCC)S(=O)(=O)c1ccc(C(=O)O)cc1 [probenecid],morphine withdrawal,morphine-dependent rats; systemic 50 mg/kg i.p. 1-hour prior to naloxone challenge,significantly ameliorated
same,ATP release,Panx1 [2]; probenecid 1 mM,suppressed
same,naloxone potentiation of Panx1 activation (YO-PRO-3 dye uptake),Panx1 [3],blocked
CC/C(=C(\c1ccccc1)c1ccc(OCCN(C)C)cc1)c1ccccc1 [tamoxifen],recombination in Cre^ER reporter eYFP / CD11b-positive cells,[6],95±3.1%
same,morphine withdrawal responses,[1]; tamoxifen given to Panx1^loxp/loxp mice without inducible Cre-recombinase,does not affect morphine withdrawal
FSVYWAQADR (scrPanx) [^scrpanx],BzATP-evoked YO-PRO-1 uptake,Panx1 [3],unaffected
WRQAAFVDSY (10panx) [^10panx],withdrawal behaviours,"morphine-dependent rats; rats after 5-days of morphine, intrathecal 10 μg, 60-minutes prior to naloxone challenge",significantly attenuated
same,naloxone-evoked release of ATP,"Panx1 [2]; cultured microglia, ^10panx 10 μM for 10 minutes prior to naloxone",blocked
same,BzATP-evoked YO-PRO-1 uptake,Panx1 [3],blocked
same,naloxone-precipitated morphine withdrawal,"[1]; Panx1-expressing mice, intrathecal 10 μg before naloxone challenge",significantly attenuated
same,naloxone-precipitated morphine withdrawal,"[1]; mice lacking microglial Panx1, intrathecal 10 μg",did not further reduce withdrawal
apyrase,morphine withdrawal,[1]; intrathecal 10 units,striking reduction in withdrawal

# Reference: US11298569B2 (priority 2016, dated 2022)
